pIC50: −log10 of the molar value.
Assays:
[1] = test system: Hartley male guinea pigs; test: Effect on blood pressure in anesthetized guinea pigs; assay type: in vivo, guinea pig; details: tamsulosin 0.01 mg/kg, Example 20 0.1 mg/kg
Description: Hartley male guinea pigs (Slc) weighing 300 to 350 g was anesthetized with urethane (1.2 g/kg), and retained, a cervical region was incised to expose a left common carotid artery. A polyethylene tube filled with physiological saline containing heparin (10 U.I./ml) was inserted into an artery, and blood pressure was measured with a pressure transducer. A cannulae for administering test compound was inserted into a vein at an end of left hind leg, and a test compound dissolved in distilled water was administered therethrough at 0.5 mL/kg. The blood pressure was recorded at 20 Hz using an analogue data inputting apparatus (MP-100, BIOPAC Systems), and analyzed by analyzing software (AcqKnowledge 3.5.3, BIOPAC Systems). Example compound and tamsulosin were studied for a dose at which effects were recognized in the aforementioned test a (Pressure Flow Study), and an average blood pressure just before administration of test compound and an average blood pressure 15 minutes after administration were measured. Data were statistically treated by Paired t-test.

[2] = test system: Hartley male guinea pigs loaded with phenylephrine; test: Pressure Flow Study using guinea pigs loaded with phenylephrine; assay type: in vivo, guinea pig; details: i.v., tamsulosin 0.01 mg/kg, Example 20 0.1 mg/kg, urethane-anesthetized, phenylephrine 3 μg/animal/min
Description: Hartley male guinea pigs (Slc) weighing 300 to 350 g was anesthetized with urethane (1.2 g/kg, i.p.), and a median was incised to expose bladder. Two polyethylene tubes were inserted into bladder, and one of them was used for injecting a physiological saline and the other was used for measuring a bladder internal pressure. A cannulae was inserted into a left femoral vein, and phenylephrine was continuously administered intravenously at 3 μg/animal/min until the completion of experiment. A physiological saline was injected into bladder at a rate of 0.3 mL/min, and injection was stopped when urination was confirmed. The urinated urine weight was measured with an electron balance (HX-400, A & D) at real time. Analogue data of bladder internal pressure and urine weight were inputted into an AD transducer (MP-100, BIOPAC Systems), and digital signals were analyzed with exclusive analyzing software (AcqKnowledge 3.5.3, BIOPAC Systems). The sampling rate of data was 10 Hz, and data of urination amount and urine flow rate were subjected to a lowcut filter at 0.5 Hz in order to remove noises. The value of urine weight was differentiated to calculate urine flow rate (Q), and maximum urine flow rate (Qmax) at urination and bladder internal pressure (Pves (Qmax)) at maximum urine flow were calculated. The urination weight 1 g was converted into 1 mL to calculate the urination amount, and divided by bladder volume to obtain voiding efficiency (Voiding Efficiency). Example compound was dissolved in DMSO, and the solution was intravenously administered at 0.5 mL/kg. 10 minutes after administration of test compound, urinary reflection was recorded again, and change in urine flow rate (ΔQmax), and change in bladder internal pressure (ΔPves(Qmax)) and voiding efficiency were assessed. The change in urine flow rate (ΔQmax) and change in bladder internal pressure (ΔPves. (Qmax)) were an amount of change (Δ value) obtained by subtracting each value before administration of test compound from each value after administration, and voiding efficiency was assessed by a relative value (% of pre-value) of after administration of test compound relative to before administration. Tamsulosin which is a known α1 receptor antagonist was measured similarly. A significance diffenence was tested by a Dunnett test by comparing with each value of a vehicle (DMSO)-administered group.

[3] = target: T1, human erythrocyte-derived acetylcholinesterase (Homo sapiens, UniProt P22303); test: Measurement of acetylcholinesterase inhibitory activity (acetylthiocholine / Ellman method); assay type: biochemical; details: 50% inhibition concentration, repeated at least three times, read-out: AchE: IC50
T1 construct: Human erythrocyte-drived acetylcholinesterase (Sigma) was dissolved in distilled water; purchased Sigma; host or cells: human erythrocytes (natural source)
T1 sequence (P22303 32-617 isoform P22303-2 limits assumed): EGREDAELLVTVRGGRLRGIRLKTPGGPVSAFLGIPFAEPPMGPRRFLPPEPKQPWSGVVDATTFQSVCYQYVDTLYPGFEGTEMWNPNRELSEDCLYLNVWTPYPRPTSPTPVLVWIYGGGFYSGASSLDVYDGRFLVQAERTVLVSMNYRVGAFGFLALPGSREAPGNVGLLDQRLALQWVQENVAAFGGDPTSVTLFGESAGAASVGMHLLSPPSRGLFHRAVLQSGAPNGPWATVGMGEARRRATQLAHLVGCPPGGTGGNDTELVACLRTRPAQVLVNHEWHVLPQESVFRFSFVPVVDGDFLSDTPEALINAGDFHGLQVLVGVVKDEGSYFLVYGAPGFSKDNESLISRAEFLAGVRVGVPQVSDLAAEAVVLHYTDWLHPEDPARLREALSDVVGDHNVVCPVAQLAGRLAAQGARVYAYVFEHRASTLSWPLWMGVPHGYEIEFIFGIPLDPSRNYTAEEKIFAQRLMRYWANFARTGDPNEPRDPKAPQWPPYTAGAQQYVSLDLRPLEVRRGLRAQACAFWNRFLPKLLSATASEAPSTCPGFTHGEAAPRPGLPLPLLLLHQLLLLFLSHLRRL
Description: a) Measurement of Acetylcholinesterase Inhibitory Activity
Acetylcholinesterase inhibitory activity of Example compounds was measured using human erythrocyte-derived acetylcholinesterase by an acetylthiocholine method (Ellman method).
Human erythrocyte-drived acetylcholinesterase (Sigma) was dissolved in distilled water to the concentration of 0.2 IU/mL to obtain an enzyme specimen. 20 μL of a drug solution, 30 μL of 80 mM Tris-HCL (pH 7.4), 50 μL of an enzyme specimen and 50 μL of 5 mM 5,5-dithio-bis (2-nitrobenzoic acid)(Sigma) were dispensed on a 96-well microplate, and this was shaken for 10 seconds. 50 μL of 4 mM acetylthiocholine iodide (Sigma) was added, this was shaken again and, immediately after, increase in absorbance at 414 nm was measured at 30 second intervals for 10 minutes. Enzyme activity was measured by the following equation: R=5.74×10^−7×ΔA (wherein R represents enzyme activity (mol), and ΔA represents increase in absorbance at 414 nm)
Regarding each compound, the experiment was repeated at least three times to obtain 50% inhibition concentration (IC50). According to the similar method to the above-mentioned, acetylcholinesterase inhibitory activity of distigmine which is a known acetylcholinesterase inhibitor was measured.

[4] = 10 minutes after administration minus before

COc1ccccc1CCNCCCCCC(=O)c1cc2c3c(c1)CCN3C(=O)CC2.Cl [Example 20, 8-(6-[[2-(2-Methoxyphenyl)ethyl]amino]hexanoyl]-1,2,5,6-tetrahydro-4H-pyrrolo[3,2,1-ij]quinolin-4-one hydrochloride]
Blood pressure, after administration ([1]; average blood pressure 15 minutes after i.v. administration): 54.6 ± 2.8 mmHg
Blood pressure, before administration ([1]; average blood pressure just before i.v. administration): 53.5 ± 3.6 mmHg
change in bladder internal pressure (ΔPves(Qmax)) [2, 4]: −1.73 ± 1.54 cmH2O
change in maximum urine flow rate (ΔQmax) [2, 4]: 0.060 ± 0.016 mL/s
voiding efficiency (% of pre-value) ([2]; after administration relative to before): 150.1 ± 20.1 %
pIC50 [3]: 6.75
